One assay deals with T1, Liver carboxylesterase 1 (Homo sapiens, UniProt P23141).
T1 sequence (P23141 whole entry): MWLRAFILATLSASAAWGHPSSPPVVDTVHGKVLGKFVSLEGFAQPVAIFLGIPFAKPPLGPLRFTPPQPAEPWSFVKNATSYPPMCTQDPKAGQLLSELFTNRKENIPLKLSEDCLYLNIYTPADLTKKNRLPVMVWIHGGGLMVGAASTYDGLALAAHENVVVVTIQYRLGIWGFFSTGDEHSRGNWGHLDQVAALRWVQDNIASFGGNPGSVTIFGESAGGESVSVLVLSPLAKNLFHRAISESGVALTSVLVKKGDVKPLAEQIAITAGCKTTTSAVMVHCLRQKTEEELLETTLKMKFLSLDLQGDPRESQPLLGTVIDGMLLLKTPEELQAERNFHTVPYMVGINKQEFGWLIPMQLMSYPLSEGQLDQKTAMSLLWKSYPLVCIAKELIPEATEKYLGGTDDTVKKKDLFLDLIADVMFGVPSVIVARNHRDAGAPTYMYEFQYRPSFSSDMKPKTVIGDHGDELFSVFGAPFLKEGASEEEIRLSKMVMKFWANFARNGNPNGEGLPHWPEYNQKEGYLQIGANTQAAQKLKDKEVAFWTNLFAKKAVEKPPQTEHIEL
Kind of assay: Inhibition of human CE1 using D-luciferin methyl ester as substrate preincubated for 10 mins followed by substrate addition and measured after 10 mins by luminescence assay.

For assay [1], the target named is T2, Tyrosine-protein phosphatase non-receptor type 1 (Homo sapiens) (UniProt P18031).
T2 sequence (whole entry): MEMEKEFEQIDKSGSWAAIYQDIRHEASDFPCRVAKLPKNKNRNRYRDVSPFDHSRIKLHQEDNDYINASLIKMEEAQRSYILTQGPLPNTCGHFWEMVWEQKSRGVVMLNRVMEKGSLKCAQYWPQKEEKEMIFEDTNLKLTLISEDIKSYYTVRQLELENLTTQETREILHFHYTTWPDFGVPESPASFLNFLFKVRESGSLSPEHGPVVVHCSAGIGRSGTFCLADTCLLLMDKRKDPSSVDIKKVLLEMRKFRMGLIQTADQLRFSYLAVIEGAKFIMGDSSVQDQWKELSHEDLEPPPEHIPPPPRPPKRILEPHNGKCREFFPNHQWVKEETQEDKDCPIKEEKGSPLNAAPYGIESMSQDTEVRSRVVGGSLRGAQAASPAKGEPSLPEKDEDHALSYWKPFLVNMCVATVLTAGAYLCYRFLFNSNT
Kind of assay: Inhibition of recombinant human GST-tagged PTP1B using para-nitrophenyl phosphate as substrate incubated for 10 mins by spectrophotometric method.

The next assay deals with HepG2. Kind of assay: Cytoprotection activity in human HepG2 cells assessed as reduction in acetaminophen-induced cell injury after 48 hrs by MTT assay. The assay is classed as functional, cell-based.
In a further assay the test system is Peritoneal macrophage. Kind of assay: Antiinflammatory activity in C57BL/6J mouse Peritoneal macrophages assessed as reduction in LPS-induced TNFalpha secretion after 24 hrs. The format is functional, cell-based.
Another assay concerns A2780. Kind of assay: Cytotoxicity against human A2780 cells assessed as reduction in cell viability after 24 hrs by MTT assay. The assay is classed as functional, cell-based.
A further assay has as its system HCT-8. Kind of assay: Cytotoxicity against human HCT8 cells assessed as reduction in cell viability after 24 hrs by MTT assay. The format is functional, cell-based.
Another assay has as its system Bel-7402. Kind of assay: Cytotoxicity against human Bel7402 cells assessed as reduction in cell viability after 24 hrs by MTT assay. The format is functional, cell-based.
A further assay relates to BGC-823. Kind of assay: Cytotoxicity against human BGC823 cells assessed as reduction in cell viability after 24 hrs by MTT assay. The assay is classed as functional, cell-based.
The test system of a further assay is A549. Kind of assay: Cytotoxicity against human A549 cells assessed as reduction in cell viability after 24 hrs by MTT assay. The format is functional, cell-based.
The test system of a further assay is Staphylococcus aureus. Kind of assay: Antimicrobial activity against Staphylococcus aureus ATCC 25923 assessed as reduction in microbial growth after 24 hrs by CLSI based broth microdilution method. The assay is classed as functional, organism-based.
For assay [2], the system named is Staphylococcus epidermidis. Kind of assay: Antimicrobial activity against Staphylococcus epidermidis ATCC 12228 assessed as reduction in microbial growth after 24 hrs by CLSI based broth microdilution method. The assay is classed as functional, organism-based.
The next assay relates to Escherichia coli. Kind of assay: Antimicrobial activity against Escherichia coli ATCC 25922 assessed as reduction in microbial growth after 24 hrs by CLSI based broth microdilution method. The assay is classed as functional, organism-based.
Assay [3] relates to Mycolicibacterium smegmatis. Kind of assay: Antimicrobial activity against Mycobacterium smegmatis MC2155 […] assessed as reduction in microbial growth after 24 hrs by CLSI based broth microdilution method. The assay is classed as functional, organism-based.
A further assay addresses T3, Cocaine esterase (Homo sapiens, UniProt O00748).
T3 sequence (O00748 whole entry): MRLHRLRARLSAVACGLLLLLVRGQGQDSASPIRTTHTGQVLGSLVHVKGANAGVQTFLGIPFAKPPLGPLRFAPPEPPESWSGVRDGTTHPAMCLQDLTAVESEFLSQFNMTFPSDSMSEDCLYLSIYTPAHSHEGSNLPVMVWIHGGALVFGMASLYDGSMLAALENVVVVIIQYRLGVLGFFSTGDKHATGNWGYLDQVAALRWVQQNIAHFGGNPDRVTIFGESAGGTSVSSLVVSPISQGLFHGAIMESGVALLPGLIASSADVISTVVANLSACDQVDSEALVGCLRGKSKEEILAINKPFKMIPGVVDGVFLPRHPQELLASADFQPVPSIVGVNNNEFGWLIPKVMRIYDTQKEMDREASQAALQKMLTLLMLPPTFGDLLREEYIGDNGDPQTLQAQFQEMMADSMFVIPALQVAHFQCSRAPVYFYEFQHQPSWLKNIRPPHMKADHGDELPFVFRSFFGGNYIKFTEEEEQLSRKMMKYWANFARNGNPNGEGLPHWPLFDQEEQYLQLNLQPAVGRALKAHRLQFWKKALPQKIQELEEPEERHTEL
Kind of assay: Inhibition of human CE2 using fluorescein diacetate as substrate preincubated for 10 mins followed by substrate addition and measured after 10 mins by luminescence assay.

The species named for the next assay is Homo sapiens. Kind of assay: Selectivity ratio of IC50 for inhibition of human CE1 […].

The source made the active and inactive calls. The calls are words filed in the database; no cut-off is given here.

At Liver carboxylesterase 1, `O=[N+]([O-])c1ccc(OP(=O)(O)Oc2ccc([N+](=O)[O-])cc2)cc1` returned an IC50 of 0.2 µM.
On Liver carboxylesterase 1, `COc1cc2c(cc1OC)[C@@]1(Oc3c(ccc(OC)c3OC)[C@]1(C)O)N(C=O)CC2` returned a half-maximal inhibitory concentration (IC50) of over 100 µM. Moreover, the inhibition entry in assay [1] is “inactive”. Further, the outcome in the assay with HepG2, in the assay on Peritoneal macrophage, with A2780, with HCT-8, with Bel-7402 and in the assay on BGC-823 was inactive. Also, the result (in the assay on A549; in the assay with Staphylococcus aureus; in assay [2]; with Escherichia coli; in [3]) was inactive.
On to `COc1cc2c(cc1OC)C([C@H](C)c1ccc(OC)c(OC)c1O)=NCC2`, for which the values for the IC50 against Liver carboxylesterase 1 and on Cocaine esterase were over 100 µM and 7.1 µM, respectively. In addition, the Ratio IC50 in the assay listed under Homo sapiens is 14.1. Also, the inhibition entry in [1] is “inactive”. Besides, the result in the assay on HepG2, with Peritoneal macrophage, in the assay with A2780, in the assay on HCT-8, in the assay on Bel-7402 and in the assay with BGC-823 was inactive. For the same molecule, the result (in the assay on A549; with Staphylococcus aureus; in assay [2]; in the assay with Escherichia coli; in assay [3]) was inactive.
On to `COc1cc2c(cc1OC)[C@]1(Oc3c(ccc(OC)c3OC)[C@@]1(C)O)N(C=O)CC2`, for which the IC50 at Liver carboxylesterase 1 was over 100 µM. The inhibition result in assay [1] is “inactive”. Besides, the result in the assay on HepG2, in the assay on Peritoneal macrophage, with A2780, with HCT-8, with Bel-7402 and in the assay with BGC-823 was inactive. The outcome (with A549; with Staphylococcus aureus; in [2]; in the assay with Escherichia coli; in assay [3]) was inactive.
For the molecule `COc1cc2ccnc([C@@H](C)c3ccc(OC)c(OC)c3O)c2cc1OC`, the half-maximal inhibitory concentration (IC50) at Cocaine esterase is over 100 µM. The inhibition entry in assay [1] was “inactive”. Besides, the result with HepG2, with Peritoneal macrophage, with A2780, in the assay on HCT-8, in the assay with Bel-7402 and in the assay with BGC-823 was inactive. In addition, the result (in the assay with A549; in the assay on Staphylococcus aureus; in [2]; in the assay with Escherichia coli; in assay [3]) was inactive.
`COc1cc2ccnc([C@H](C)c3ccc(OC)c(OC)c3O)c2cc1OC`: the IC50 at Cocaine esterase was over 100 µM. The inhibition entry in [1] is “inactive”. In addition, the outcome in the assay with HepG2, with Peritoneal macrophage, with A2780, in the assay with HCT-8, in the assay on Bel-7402 and in the assay with BGC-823 was inactive. Also, the result (in the assay on A549; in the assay on Staphylococcus aureus; in [2]; in the assay on Escherichia coli; in assay [3]) was inactive.
Consider `COc1cc2c(cc1OC)C([C@@](C)(OC)c1ccc(OC)c(OC)c1O)=NCC2`, for which the results for the 50% inhibitory concentration (IC50) on Liver carboxylesterase 1 and against Cocaine esterase were over 100 µM and 9.3 µM, respectively. Moreover, the Ratio IC50 in the assay listed under Homo sapiens is 10.8. In addition, the inhibition entry in assay [1] is “inactive”. Also, the outcome in the assay on HepG2, with Peritoneal macrophage, in the assay with A2780, with HCT-8, in the assay on Bel-7402 and with BGC-823 was inactive. Moreover, the result (with A549; in the assay on Staphylococcus aureus; in [2]; in the assay on Escherichia coli; in assay [3]) was inactive.
For the molecule `COc1cc2ccnc([C@@]3(C)OC(=O)c4c3ccc(OC)c4OC)c2cc1OC`, the IC50 is over 100 µM against Liver carboxylesterase 1 and 2 µM at Cocaine esterase. Moreover, in the assay filed under Homo sapiens, the Ratio IC50 stood at 49.3. Besides, the inhibition entry in assay [1] is “inactive”. Further, the result in the assay with HepG2, in the assay on Peritoneal macrophage, with A2780, with HCT-8, with Bel-7402 and with BGC-823 was inactive. The result (with A549; in the assay on Staphylococcus aureus; in assay [2]; in the assay with Escherichia coli; in [3]) was inactive.
With `COc1cc2cc[n+]3c(c2cc1OC)[C@](C)(O)c1ccc(OC)c(OC)c1C3`, the IC50 is over 100 µM against Liver carboxylesterase 1 and 13.2 µM against Cocaine esterase. Further, in the assay filed under Homo sapiens, the Ratio IC50 was determined as 7.6. Moreover, the inhibition entry in assay [1] is “inactive”. In addition, the outcome in the assay on HepG2, with Peritoneal macrophage, in the assay with A2780, in the assay with HCT-8, in the assay with Bel-7402 and with BGC-823 was inactive. The result (in the assay with A549; in the assay with Staphylococcus aureus; in assay [2]; with Escherichia coli; in [3]) was inactive.
For `COc1cc2c(cc1OC)C([C@@H](C)c1ccc(OC)c(OC)c1O)=NCC2`, the IC50 is over 100 µM against Liver carboxylesterase 1 and 8.7 µM at Cocaine esterase. In addition, in the assay filed under Homo sapiens, the Ratio IC50 is 11.6. In addition, the inhibition result in [1] is “inactive”. Besides, the outcome in the assay on HepG2, in the assay with Peritoneal macrophage, in the assay on A2780, in the assay on HCT-8, in the assay on Bel-7402 and in the assay on BGC-823 was inactive. Further, the result (in the assay with A549; in the assay with Staphylococcus aureus; in assay [2]; in the assay on Escherichia coli; in assay [3]) was inactive.

These data come from ChEMBL document CHEMBL4602685, “Yanhusanines A-F, Isoquinoline-Derived Alkaloid Enantiomers from Corydalis yanhusuo and Their Biological Activity” (J Nat Prod, 2020).
